Data on two compounds can be found in EP4527828A1, “BIPHENYL COMPOUND, PHARMACEUTICAL COMPOSITION, METHOD FOR PREPARING SAME, AND USE THEREOF” (Longivitron (Suzhou) Biotechnology Co., Ltd, priority 2022, dated 2023).

Each structure is given as a SMILES string. Read-outs that look alike come from different tables or passages of the source.

In assay [1] the test system is mouse liver cancer HEPA1-6. The class given is in vivo. As to conditions: 27 days. The protocol: (1) 32 8-week-old female C57L mice were selected and divided into 5 cages. HEPA1-6 cells cultured with DMEM + 10% FBS in vitro were washed with PBS and digested with 0.25% trypsin for 3 min. The digestion was terminated with a serum-containing medium, the cells were centrifuged at 2500 rpm for 5 min, the supernatant was discarded, and the cells were resuspended with an appropriate amount of PBS twice. The number of cells was 1.14 × 10^7 cells/mL as counted with a BioRad counting instrument. The cell suspension was placed in an Erlenmeyer flask in an ice bath for later use. The tumor fluid was evenly aspirated using a 1 mL sterile syringe and inoculated 0.2 mL/mouse. After the inoculation was completed, the mice continued to be fed under the initial feeding conditions.
(2) Animal grouping: On the second day after tumor fluid inoculation of C57B/L mice, 32 mice were randomly grouped: 8 mice in a control group, 6 mice in a Compound 4-5 mg/kg group, 6 mice in a Compound 4-10 mg/kg group, 6 mice in a Compound 4-20 mg/kg group, and 6 mice in a positive control drug cyclophosphamide (CTX)-100 mg/kg group. The drug test groups were given the drugs to be tested orally once a day, and the positive control drug CTX was injected intraperitoneally once. The mice were weighed and administered daily.
(3) Drug preparation: The corresponding amounts of the drugs to be tested were weighed according to the final concentrations of the experimental groups. The drugs of the Compound 4-5 mg/kg group, the Compound 4-10 mg/kg group, and the Compound 4-20 mg/kg group were prepared with 5% CMCNa + Tween 80, and CTX was prepared with normal saline. The mice in the control group were given 5% CMCNa solution orally. The dosages were as follows: 0.4 mL/20 g body weight of the animal for intragastric administration, and 0.2 mL/20 g body weight of the animal for intraperitoneal injection.
(4) The animals were sacrificed, and the tumors were separated and weighed. The animals in each group were treated immediately 1 h after administration on the last day and weighed, and the tumor tissue was separated and weighed.

Assay [2] concerns mouse melanoma B16F10. Type of assay: in vivo. The protocol: (1) 43 8-week-old female C57B/L mice were selected and divided into 5 cages. One preserved B16F10 tumor-bearing female C57L mouse was sacrificed by cervical dislocation. 75% alcohol was sprayed on the skin of the mouse in a laminar flow cabinet, and the tumor tissue of the tumor-bearing mouse was separated by sterilized surgical instruments and cut into a sterilized 5 mL homogenizer with ophthalmic scissors. The tumor tissue was slowly milled on ice to form a tumor fluid. The number of cells was 6.85 × 10^7 cells/mL as counted with a BioRad counting instrument. The tumor fluid was placed in an Erlenmeyer flask in an ice bath for later use. The tumor fluid was evenly aspirated using a 1 mL sterile syringe and inoculated 0.2 mL/C57/L mouse. After the inoculation was completed, the mice continued to be fed under the initial feeding conditions.
(4) The animals were sacrificed, and the tumors were separated and weighed. The animals in each group were treated immediately 1 h after administration on the last day and weighed, and the tumor tissue was weighed.
Animal grouping and administration: On the second day after tumor fluid inoculation of C57B/L mice, tumor-bearing mice were randomly grouped: a control group, a Compound 8-5 mg/kg group, a Compound 8-10 mg/kg group, a Compound 8-20 mg/kg group, and a positive control drug cyclophosphamide CTX-100 mg/kg group. The animals were weighed and administered daily. The drugs to be tested were administered orally daily, and the positive control drug CTX was administered intraperitoneally once. After the experiment was completed, the body weights and tumor weights of the animals were weighed, and the tumor weight inhibition rate (%) was calculated.

The mark [3] stands for this setting: HEPA1-6, 10 mg/kg po once a day.
The mark [4] stands for this setting: HEPA1-6, 20 mg/kg po once a day.

On to `CCCCCCOc1ccc2cc1-c1cc(ccc1OCCCCCC)C(=O)CCCCCC2=O` [Compound 4], for which the Inhibition rate in assay [1] (HEPA1-6, 5 mg/kg po once a day) is 24.72%; in assay [1] (setting [3]) it was 52%; in assay [1] (setting [4]), 36.56%. The Tumor weight in assay [1] (HEPA1-6, 5 mg/kg po once a day) stood at 0.510 ± 0.312 g; in assay [1] (setting [3]), 0.325 ± 0.256 g; in assay [1] (setting [4]), 0.430 ± 0.140 g.
For `CCCCCCOc1ccc(C(=O)O)cc1-c1cc(C(=O)NCCCCNC(=O)C(F)(F)F)ccc1OCCCCCC` [Compound 8], the Inhibition rate stood at 16.94% in assay [2] (B16F10, 5 mg/kg orally daily); 19.78% in assay [2] (B16F10, 10 mg/kg orally daily); 53.64% in assay [2] (B16F10, 20 mg/kg orally daily). Also, the Tumor weight in assay [2] (B16F10, 5 mg/kg orally daily) was determined as 1.50 ± 0.27 g; in assay [2] (B16F10, 10 mg/kg orally daily) it was 1.45 ± 0.70 g; in assay [2] (B16F10, 20 mg/kg orally daily), 0.80 ± 0.46 g.
